# Assay results reported in ChEMBL document CHEMBL4725318, “New vinyl-1,2,4-triazole derivatives as antimicrobial agents: Synthesis, biological evaluation and molecular docking studies” (2020).
# Assays:
# Format in all cases: functional
# [1] = tested on: Pseudomonas fluorescens; experiment: Bactericidal activity against Pseudomonas fluorescens
# [2] = tested on: Pectobacterium carotovorum; experiment: Bactericidal activity against Erwinia carotovora
# [3] = tested on: Aspergillus ochraceus; experiment: Antifungal activity Aspergillus ochraceus by microdilution method
# [4] = tested on: Aspergillus ochraceus; experiment: Fungicidal activity Aspergillus ochraceus
# [5] = tested on: Aspergillus versicolor; experiment: Fungicidal activity Aspergillus versicolor
# [6] = tested on: Bacillus subtilis; experiment: Antibacterial activity against Bacillus subtilis by microdilution method
# [7] = tested on: Aspergillus niger; experiment: Fungicidal activity Aspergillus niger
# [8] = tested on: Penicillium ochrochloron; experiment: Fungicidal activity Penicillium ochrochloron
# [9] = tested on: Erwinia amylovora; experiment: Antibacterial activity against Erwinia amylovora by microdilution method
# [10] = tested on: Aspergillus versicolor; experiment: Antifungal activity Aspergillus versicolor by microdilution method
# [11] = tested on: Penicillium cyclopium; experiment: Fungicidal activity Penicillium verrucosum var. cyclopium
# [12] = tested on: Bacillus subtilis; experiment: Bactericidal activity against Bacillus subtilis
# [13] = tested on: Penicillium ochrochloron; experiment: Antifungal activity Penicillium ochrochloron by microdilution method
# [14] = tested on: Aspergillus fumigatus; experiment: Fungicidal activity Aspergillus fumigatus
# [15] = tested on: Xanthomonas campestris; experiment: Antibacterial activity against Xanthomonas campestris by microdilution method
# [16] = tested on: Talaromyces funiculosus; experiment: Antifungal activity Penicillium funiculosum by microdilution method
# [17] = tested on: Talaromyces funiculosus; experiment: Fungicidal activity Penicillium funiculosum
# [18] = tested on: Aspergillus niger; experiment: Antifungal activity Aspergillus niger by microdilution method
# [19] = tested on: Erwinia amylovora; experiment: Bactericidal activity against Erwinia amylovora
# [20] = tested on: Xanthomonas campestris; experiment: Bactericidal activity against Xanthomonas campestris
# [21] = tested on: Trichoderma viride; experiment: Fungicidal activity Trichoderma viride
# [22] = tested on: Penicillium cyclopium; experiment: Antifungal activity Penicillium verrucosum var. cyclopium by microdilution method
# [23] = tested on: Trichoderma viride; experiment: Antifungal activity Trichoderma viride by microdilution method
# [24] = tested on: Pseudomonas fluorescens; experiment: Antibacterial activity against Pseudomonas fluorescens by microdilution method
# [25] = tested on: Pectobacterium carotovorum; experiment: Antibacterial activity against Erwinia carotovora by microdilution method
# [26] = tested on: Aspergillus fumigatus; experiment: Antifungal activity Aspergillus fumigatus by microdilution method
compound,measurement,setting,value
O=C(/C(=C/c1ccccc1)n1cncn1)c1ccc(Cl)cc1Cl,MBC,[1],2.9 µM
same,MBC,[2],5.8 µM
same,MIC,[3],100 µM
same,MFC,[4],220 µM
same,MFC,[5],220 µM
same,MIC,[6],2.9 µM
same,MFC,[7],220 µM
same,MFC,[8],440 µM
same,MIC,[9],2.9 µM
same,MIC,[10],80 µM
same,MFC,[11],440 µM
same,MBC,[12],5.8 µM
same,MIC,[13],160 µM
same,MFC,[14],220 µM
same,MIC,[15],2.9 µM
same,MIC,[16],220 µM
same,MFC,[17],440 µM
same,MIC,[18],160 µM
same,MBC,[19],2.9 µM
same,MBC,[20],2.9 µM
same,MFC,[21],100 µM
same,MIC,[22],220 µM
same,MIC,[23],50 µM
same,MIC,[24],2.9 µM
same,MIC,[25],2.9 µM
same,MIC,[26],160 µM
O=C(/C(=C/c1cc([N+](=O)[O-])ccc1O)n1cncn1)c1ccc(Cl)cc1,MBC,[1],2.7 µM
same,MBC,[2],2.7 µM
same,MIC,[3],100 µM
same,MFC,[4],200 µM
same,MFC,[5],200 µM
same,MIC,[6],2.7 µM
same,MFC,[7],200 µM
same,MFC,[8],200 µM
same,MIC,[9],2.7 µM
same,MIC,[10],100 µM
same,MFC,[11],410 µM
same,MBC,[12],2.7 µM
same,MIC,[13],100 µM
same,MFC,[14],410 µM
same,MIC,[15],1.3 µM
same,MIC,[16],150 µM
same,MFC,[17],200 µM
same,MIC,[18],150 µM
same,MBC,[19],2.7 µM
same,MBC,[20],2.7 µM
same,MFC,[21],200 µM
same,MIC,[22],200 µM
same,MIC,[23],100 µM
same,MIC,[24],1.3 µM
same,MIC,[25],2.7 µM
same,MIC,[26],200 µM
CN(C)c1ccc(/C=C(/C(=O)c2ccc(-c3ccccc3)cc2)n2cncn2)cc1,MBC,[1],2.5 µM
same,MBC,[2],5.1 µM
same,MIC,[3],130 µM
same,MFC,[4],250 µM
same,MFC,[5],510 µM
same,MIC,[6],2.5 µM
same,MFC,[7],510 µM
same,MFC,[8],250 µM
same,MIC,[9],2.5 µM
same,MIC,[10],250 µM
same,MFC,[11],510 µM
same,MBC,[12],5.1 µM
same,MIC,[13],130 µM
same,MFC,[14],510 µM
same,MIC,[15],5.1 µM
same,MIC,[16],180 µM
same,MFC,[17],250 µM
same,MIC,[18],250 µM
same,MBC,[19],2.5 µM
same,MBC,[20],5.1 µM
same,MFC,[21],130 µM
same,MIC,[22],250 µM
same,MIC,[23],90 µM
same,MIC,[24],2.5 µM
same,MIC,[25],2.5 µM
same,MIC,[26],250 µM
O=C(/C(=C/c1ccc([N+](=O)[O-])cc1)n1cncn1)c1ccc(Cl)cc1,MBC,[1],1.3 µM
same,MBC,[2],1.3 µM
same,MIC,[3],70 µM
same,MFC,[4],100 µM
same,MFC,[5],190 µM
same,MIC,[6],1.3 µM
same,MFC,[7],190 µM
same,MFC,[8],190 µM
same,MIC,[9],1.3 µM
same,MIC,[10],100 µM
same,MFC,[11],190 µM
same,MBC,[12],1.3 µM
same,MIC,[13],100 µM
same,MFC,[14],190 µM
same,MIC,[15],1.3 µM
same,MIC,[16],140 µM
same,MFC,[17],190 µM
same,MIC,[18],140 µM
same,MBC,[19],1.3 µM
same,MBC,[20],1.3 µM
same,MFC,[21],100 µM
same,MIC,[22],140 µM
same,MIC,[23],70 µM
same,MIC,[24],0.6 µM
same,MIC,[25],1.3 µM
same,MIC,[26],100 µM
CC(C)CC(=O)/C(=C/c1ccc([N+](=O)[O-])cc1)n1cncn1,MBC,[1],3.3 µM
same,MBC,[2],0.8 µM
same,MIC,[3],20 µM
same,MFC,[4],30 µM
same,MFC,[5],60 µM
same,MIC,[6],0.8 µM
same,MFC,[7],30 µM
same,MFC,[8],60 µM
same,MIC,[9],0.4 µM
same,MIC,[10],40 µM
same,MFC,[11],60 µM
same,MBC,[12],0.8 µM
same,MIC,[13],30 µM
same,MFC,[14],30 µM
same,MIC,[15],0.8 µM
same,MIC,[16],40 µM
same,MFC,[17],60 µM
same,MIC,[18],20 µM
same,MBC,[19],0.8 µM
same,MBC,[20],0.8 µM
same,MFC,[21],60 µM
same,MIC,[22],40 µM
same,MIC,[23],30 µM
same,MIC,[24],3.3 µM
same,MIC,[25],0.4 µM
same,MIC,[26],20 µM
O=C(/C(=C/c1cccc(O)c1)n1cncn1)c1ccccc1,MBC,[1],1.7 µM
same,MBC,[2],1.7 µM
same,MIC,[3],190 µM
same,MFC,[4],520 µM
same,MFC,[5],520 µM
same,MIC,[6],6.9 µM
same,MFC,[7],100 µM
same,MFC,[8],520 µM
same,MIC,[9],1.7 µM
same,MIC,[10],260 µM
same,MFC,[11],520 µM
same,MBC,[12],6.9 µM
same,MIC,[13],260 µM
same,MFC,[14],520 µM
same,MIC,[15],1.7 µM
same,MIC,[16],260 µM
same,MFC,[17],520 µM
same,MIC,[18],520 µM
same,MBC,[19],3.4 µM
same,MBC,[20],3.4 µM
same,MFC,[21],260 µM
same,MIC,[22],380 µM
same,MIC,[23],190 µM
same,MIC,[24],1.7 µM
same,MIC,[25],1.7 µM
same,MIC,[26],380 µM
